US12215085B2 (priority 2019, dated 2025)

Tests used:
[1] = system: rats with common carotid artery occlusion-induced vascular dementia; assay: Water maze test, common carotid artery occlusion-induced vascular dementia rats; type: in vivo, rat; conditions: succinate; for orientation angle for reaching the platform / speed for reaching the platform / swimming path length for reaching the platform / time for reaching the platform: x ± s; for Average speed / Number of crossing the platform / Orientation angle / Swimming path length in the platform area/total swimming path length × 100% / Time in the platform area / Time in the platform quadrants: Day 7
Text: (§1) A rat blood vessel dementia model was made according to the references [ZHAO Xian-lin, FANG Xiu-bin, LI Dong-pei. Establishment of Vascular Dementia Model in Rats, J Chin Med Univ, 2002, 31 (3): 166-168; WANG Yong-yan, Zhang Bo-li, Editor-in-chief. Modern Chinese Medicine Clinic and Research on Vascular Dementia, People's Medical Publishing House, October 2003, First Version 214]: Chloral hydrate 0.4 g/kg was intraperitoneally injected for anesthetizing rats, and bilateral common carotid arteries were isolated and ligated. The animals were fed for 16 weeks, divided into groups on the last 7 days, and administered. The normal control group and the model group were administrated through the intragastric route with distilled water by 0.5 ml/100 g, the positive control group was administrated through the intragastric route with donepezil hydrochloride by 1.75 mg/kg (equivalent to 3.85 times the clinical daily dosage of 5 mg/70 kg), the low, medium and high-dose groups of Crystal Form A of octahydroaminoacridine succinate were administrated through the intragastric route with Crystal Form A of octahydroaminoacridine succinate by 0.7, 1.4 and 2.8 mg/kg (equivalent to 0.96, 1.92 and 3.85 times the clinical daily dosage of 8 mg/70 kg). The water maze test and the step-down test were carried out after continuous administration for 7 days, and the administration was continued during the test period. The water maze test was continuously performed for 7 days, in the first 6 days, in four different water entry points of quadrants 1, 2, 3 and 4, the time, the swimming path length, the orientation angle and the average speed of the rat reaching the platform were measured, meanwhile, the strategy for reaching the platform adopted by rats was observed, on the 7th day, the platform was removed, the number of rats crossing the platform in 2 minutes, the residence time in the platform area, the residence time in the platform quadrants, the percentage of the swimming path length in the platform area quadrants to the total swimming path length, the average speed and the orientation angle were measured. After the water maze test was finished, the step-down test was performed, and the number of electric shocks (or called as the error number) received by each rat within 5 minutes was recorded as the learning performance. The test was performed again after 24 hours, namely, the memory retention test, and the latent period for stepping-down the platform for the first time and the error number in five minutes were recorded. After the step-down test was finished, the brain was taken quickly for pathological examination, and the pathological changes of the hippocampus and the cortex were observed.

[2] = system: rats with common carotid artery occlusion-induced vascular dementia; assay: Step-down test, common carotid artery occlusion-induced vascular dementia rats; type: in vivo, rat; conditions: step-down method, x ± s, succinate
Text: as §1

[3] = Day 1, 0.7 mg/kg intragastric, 0.7 mg/kg
[4] = Day 1, 1.4 mg/kg intragastric, 1.4 mg/kg
[5] = Day 1, 2.8 mg/kg intragastric, 2.8 mg/kg
[6] = Day 2, 0.7 mg/kg intragastric, 0.7 mg/kg
[7] = Day 2, 1.4 mg/kg intragastric, 1.4 mg/kg
[8] = Day 2, 2.8 mg/kg intragastric, 2.8 mg/kg
[9] = Day 3, 0.7 mg/kg intragastric, 0.7 mg/kg
[10] = Day 3, 1.4 mg/kg intragastric, 1.4 mg/kg
[11] = Day 3, 2.8 mg/kg intragastric, 2.8 mg/kg
[12] = Day 4, 0.7 mg/kg intragastric, 0.7 mg/kg
[13] = Day 4, 1.4 mg/kg intragastric, 1.4 mg/kg
[14] = Day 4, 2.8 mg/kg intragastric, 2.8 mg/kg
[15] = Day 5, 0.7 mg/kg intragastric, 0.7 mg/kg
[16] = Day 5, 1.4 mg/kg intragastric, 1.4 mg/kg
[17] = Day 5, 2.8 mg/kg intragastric, 2.8 mg/kg
[18] = Day 6, 0.7 mg/kg intragastric, 0.7 mg/kg
[19] = Day 6, 1.4 mg/kg intragastric, 1.4 mg/kg
[20] = Day 6, 2.8 mg/kg intragastric, 2.8 mg/kg
[21] = 0.7 mg/kg intragastric, 0.7 mg/kg
[22] = 1.4 mg/kg intragastric, 1.4 mg/kg
[23] = 2.8 mg/kg intragastric, 2.8 mg/kg

Question: What does the source list for `Nc1c2c(nc3c1CCCC3)CCCC2.O=C(O)CCC(=O)O` [Crystal Form K, 9-amino-1,2,3,4,5,6,7,8-octahydroacridine succinate]?
Answer: adopted strategy for reaching the platform (the peripheral type and the random type %) [1, 3]: 93.00%; orientation angle for reaching the platform [1, 3]: 68.46 ± 25.21 °; speed for reaching the platform [1, 3]: 21.26 ± 4.78 cm/s; swimming path length for reaching the platform [1, 3]: 1602.41 ± 583.25 cm; time for reaching the platform [1, 3]: 75.36 ± 14.23 s; adopted strategy for reaching the platform (the peripheral type and the random type %) [1, 4]: 86.50%; orientation angle for reaching the platform [1, 4]: 69.28 ± 21.03 °; speed for reaching the platform [1, 4]: 20.45 ± 9.24 cm/s; swimming path length for reaching the platform [1, 4]: 1502.83 ± 613.11 cm; time for reaching the platform [1, 4]: 73.45 ± 14.49 s; adopted strategy for reaching the platform (the peripheral type and the random type %) [1, 5]: 79.00%; orientation angle for reaching the platform [1, 5]: 70.38 ± 18.48 °; speed for reaching the platform [1, 5]: 19.88 ± 6.76 cm/s; swimming path length for reaching the platform [1, 5]: 1211.27 ± 259.82 cm; time for reaching the platform [1, 5]: 70.25 ± 9.82 s; adopted strategy for reaching the platform (the peripheral type and the random type %) [1, 6]: 83.50%; orientation angle for reaching the platform [1, 6]: 60.47 ± 24.23 °; speed for reaching the platform [1, 6]: 21.66 ± 8.76 cm/s; swimming path length for reaching the platform [1, 6]: 1242.31 ± 438.47 cm; time for reaching the platform [1, 6]: 57.33 ± 17.88 s; adopted strategy for reaching the platform (the peripheral type and the random type %) [1, 7]: 80.00%; orientation angle for reaching the platform [1, 7]: 58.29 ± 17.83 °; speed for reaching the platform [1, 7]: 24.28 ± 9.65 cm/s; swimming path length for reaching the platform [1, 7]: 1219.38 ± 892.43 cm; time for reaching the platform [1, 7]: 50.21 ± 20.11 s; adopted strategy for reaching the platform (the peripheral type and the random type %) [1, 8]: 76.50%; orientation angle for reaching the platform [1, 8]: 57.88 ± 17.43 °; speed for reaching the platform [1, 8]: 28.24 ± 4.72 cm/s; swimming path length for reaching the platform [1, 8]: 1377.38 ± 328.92 cm; time for reaching the platform [1, 8]: 47.36 ± 14.52 s; adopted strategy for reaching the platform (the peripheral type and the random type %) [1, 9]: 70.50%; orientation angle for reaching the platform [1, 9]: 59.03 ± 16.89 °; speed for reaching the platform [1, 9]: 20.12 ± 8.22 cm/s; swimming path length for reaching the platform [1, 9]: 749.48 ± 427.45 cm; time for reaching the platform [1, 9]: 45.78 ± 10.33 s; adopted strategy for reaching the platform (the peripheral type and the random type %) [1, 10]: 71.00%; orientation angle for reaching the platform [1, 10]: 58.22 ± 10.34 °; speed for reaching the platform [1, 10]: 21.34 ± 6.99 cm/s; swimming path length for reaching the platform [1, 10]: 763.45 ± 414.55 cm; time for reaching the platform [1, 10]: 44.29 ± 20.13 s; adopted strategy for reaching the platform (the peripheral type and the random type %) [1, 11]: 65.50%; orientation angle for reaching the platform [1, 11]: 55.11 ± 16.99 °; speed for reaching the platform [1, 11]: 20.10 ± 6.82 cm/s; swimming path length for reaching the platform [1, 11]: 644.62 ± 582.37 cm; time for reaching the platform [1, 11]: 40.67 ± 13.41 s; adopted strategy for reaching the platform (the peripheral type and the random type %) [1, 12]: 75.50%; orientation angle for reaching the platform [1, 12]: 55.36 ± 19.61 °; speed for reaching the platform [1, 12]: 21.70 ± 10.21 cm/s; swimming path length for reaching the platform [1, 12]: 788.25 ± 300.86 cm; time for reaching the platform [1, 12]: 40.55 ± 16.73 s; adopted strategy for reaching the platform (the peripheral type and the random type %) [1, 13]: 68.00%; orientation angle for reaching the platform [1, 13]: 53.49 ± 14.67 °; speed for reaching the platform [1, 13]: 20.28 ± 6.02 cm/s; swimming path length for reaching the platform [1, 13]: 752.34 ± 467.22 cm; time for reaching the platform [1, 13]: 39.57 ± 18.69 s; adopted strategy for reaching the platform (the peripheral type and the random type %) [1, 14]: 62.50%; orientation angle for reaching the platform [1, 14]: 50.35 ± 15.5 °; speed for reaching the platform [1, 14]: 21.00 ± 5.91 cm/s; swimming path length for reaching the platform [1, 14]: 703.47 ± 231.68 cm; time for reaching the platform [1, 14]: 37.88 ± 17.67 s; adopted strategy for reaching the platform (the peripheral type and the random type %) [1, 15]: 72.50%; orientation angle for reaching the platform [1, 15]: 53.56 ± 14.56 °; speed for reaching the platform [1, 15]: 21.42 ± 7.22 cm/s; swimming path length for reaching the platform [1, 15]: 664.56 ± 562.88 cm; time for reaching the platform [1, 15]: 31.42 ± 17.35 s; adopted strategy for reaching the platform (the peripheral type and the random type %) [1, 16]: 62.00%; orientation angle for reaching the platform [1, 16]: 52.76 ± 19.40 °; speed for reaching the platform [1, 16]: 21.26 ± 8.46 cm/s; swimming path length for reaching the platform [1, 16]: 689.43 ± 267.98 cm; time for reaching the platform [1, 16]: 34.62 ± 12.48 s; adopted strategy for reaching the platform (the peripheral type and the random type %) [1, 17]: 58.50%; orientation angle for reaching the platform [1, 17]: 53.49 ± 23.42 °; speed for reaching the platform [1, 17]: 22.93 ± 6.31 cm/s; swimming path length for reaching the platform [1, 17]: 642.45 ± 386.45 cm; time for reaching the platform [1, 17]: 28.41 ± 8.73 s; adopted strategy for reaching the platform (the peripheral type and the random type %) [1, 18]: 70.00%; orientation angle for reaching the platform [1, 18]: 50.39 ± 22.30 °; speed for reaching the platform [1, 18]: 19.52 ± 14.27 cm/s; swimming path length for reaching the platform [1, 18]: 523.46 ± 237.12 cm; time for reaching the platform [1, 18]: 32.45 ± 21.25 s; adopted strategy for reaching the platform (the peripheral type and the random type %) [1, 19]: 66.50%; orientation angle for reaching the platform [1, 19]: 50.34 ± 20.04 °; speed for reaching the platform [1, 19]: 22.54 ± 9.36 cm/s; swimming path length for reaching the platform [1, 19]: 531.55 ± 169.37 cm; time for reaching the platform [1, 19]: 28.21 ± 15.63 s; adopted strategy for reaching the platform (the peripheral type and the random type %) [1, 20]: 54.00%; orientation angle for reaching the platform [1, 20]: 46.37 ± 26.8 °; speed for reaching the platform [1, 20]: 21.32 ± 7.46 cm/s; swimming path length for reaching the platform [1, 20]: 502.78 ± 482.65 cm; time for reaching the platform [1, 20]: 29.10 ± 17.83 s; Average speed [1, 21]: 23.62 ± 8.38 cm/s; Number of crossing the platform [1, 21]: 5.67 ± 3.45; Orientation angle [1, 21]: 27.88 ± 6.57 °; Swimming path length in the platform area/total swimming path length × 100% [1, 21]: 26.88 ± 7.36%; Time in the platform area [1, 21]: 2.87 ± 2.14 s; Time in the platform quadrants [1, 21]: 35.61 ± 10.91 s; Average speed [1, 22]: 24.69 ± 5.76 cm/s; Number of crossing the platform [1, 22]: 7.25 ± 2.45; Orientation angle [1, 22]: 24.69 ± 8.21 °; Swimming path length in the platform area/total swimming path length × 100% [1, 22]: 28.74 ± 8.90%; Time in the platform area [1, 22]: 2.18 ± 2.34 s; Time in the platform quadrants [1, 22]: 37.88 ± 12.37 s; Average speed [1, 23]: 25.45 ± 6.98 cm/s; Number of crossing the platform [1, 23]: 7.49 ± 3.51; Orientation angle [1, 23]: 23.57 ± 4.76 °; Swimming path length in the platform area/total swimming path length × 100% [1, 23]: 27.39 ± 10.42%; Time in the platform area [1, 23]: 2.56 ± 3.27 s; Time in the platform quadrants [1, 23]: 34.52 ± 15.82 s; Day 1, Error number [2, 21]: 9.21 ± 4.52; Day 2, Error latency [2, 21]: 146.89 ± 60.45 s; Day 2, Error number [2, 21]: 2.49 ± 2.35; Day 1, Error number [2, 22]: 8.34 ± 3.78; Day 2, Error latency [2, 22]: 178.46 ± 52.77 s; Day 2, Error number [2, 22]: 3.34 ± 1.49; Day 1, Error number [2, 23]: 8.46 ± 4.68; Day 2, Error latency [2, 23]: 192.55 ± 87.48 s; Day 2, Error number [2, 23]: 3.41 ± 1.88
